What was measured:
[1] = system: ERK1/2 (Erk42/44) phosphorylation; test: ERK1/2 phosphorylation in H-ras cells, Western blot; assay type: cell-based, murine
Excerpt: (§1) Briefly, subconfluent monolayer cultures were lysed with the recommended SDS-containing sample buffer, the lysate was subjected to SDS-PAGE and electroblotted onto nitrocellulose paper. Blots were probed with anti-ERK1/2 or anti-phospho-ERK1/2 antibodies (for samples treated with FTI-1 or PD98059), anti-ATF-2 or anti-phospho-ATF-2 (for samples treated with SB203580), and anti-Akt and anti-phospho-Akt (for samples treated with Wortmannin). The antibody kits were purchased from New England Biolabs (MA). FTI-1, PD98059, SB203580 and Wortmannin were purchased from Calbiochem (CA).

[2] = system: PKR phosphorylation; test: PKR phosphorylation in HSV-1 infected H-ras cells, immunoblot with anti-PKR / anti-phospho-PKR; assay type: cell-based, murine
Method: (§2) Western blot (Immunoblot) analysisinfected cells were lysed with the single detergent lysis buffer [50 mM Tris (pH 8.0), 150 mM NaCI, 0.02% sodium azide, 100 μg/ml phenylmethy-sulfonyl fluoride, 1 μg/ml aprotinin, and 1% Triton X-100], normalized for the amount of total protein and subjected to SDS-PAGE, followed by electroblotting onto nitrocellulose paper. The membrane was then washed and incubated with the primary antibody [rabbit antibody against all HSV-1 antigens (Dako, CA.; 1:20,000); mouse anti-ICP27 or anti-gC antibody (Rumbaugh-Goodwin Institute, FL; 1:1,000); rabbit anti-ICP8 antibody (from Dr. Paul Olivo, Washington University, St. Louis; 1:1,000); mouse anti-PKR and mouse anti-eIF-2 α antibody (Santa Cruz; 1:1,000); rabbit anti-phospho-PKR and rabbit antiphospho-eIF-2 α antibody (Biosource, CA; 1:1,000) followed by HRP-conjugated secondary antibody (1:2,000). After extensive washing, the blot was exposed to Lumigel detection solution (New England Biolabs) and subjected to autoradiography.
H-ras cells were exposed to FTI-1 (100 μM) or PD98059(40 μM) and the phosphorylation state of PKR was assessed using anti-PKR (total PKR) or anti-phospho-PKR (P-PKR) antibodies . […] The difference in phosphorylation of PKR in infected NIH-3T3 cells and in infected MEF cells is shown in the right side of FIG. 10, Panel “B”.

[3] = system: HSV-1; test: HSV-1 virus yield from H-ras transformed cells, plaque titration on Vero cells; assay type: cell-based; conditions: MOI 0.5 PFU/cell, harvested 22 hours post infection, inhibitor present for entire infection
[4] = system: HSV-1; test: HSV-1 viral protein synthesis in infected H-ras transformed NIH-3T3 cells, Western blot with rabbit anti-HSV-1 antibody; assay type: cell-based, HSV-1 (strain F); conditions: for production of viral proteins / HSV-1 infection / infectivity (summary statement): H-ras transformed NIH-3T3 cells; for production of viral proteins: 22 hours post-infection
Method: as §2
(§3) H-ras transformed NIH-3T3 cells were exposed to the farnesyl transferase inhibitors FTI-1 at a final concentration 50 μM or 100 μM in the culture medium. Control cells were not exposed to inhibitor. At 22 hours post-infection the cells were harvested and Western blot analysis was performed on these samples using rabbit anti-HSV-1 antibody, as described above.
as §3, with “To determine whether other inhibitors of farnesyl transferase would have the same effect on viral protein synthesis, three additional inhibitors were tested. H-ras” for “H-ras”, “FPTI-1, FPTI-2 and FTI-4” for “FTI-1”, “150 μM, 150” for “50”, “or 50” for “100”, “postinfection” for “post-infection”
HSV-1 infected H-ras transformed NIH-3T3 cells were exposed to 40 μM PD98059 in the culture medium. Control cells (HSV-1 infected) were not exposed to PD98059. At 22 hours post-infection, the cells were harvested and Western blot analysis was performed on these samples using rabbit anti-HSV antibody, as described above.
P-13 Kinase Pathway is Not Involved in HSV-1 InfectionH-ras cells that were infected with HSV-1 were exposed to Wortmannin at a final concentration of 200 nM for the entire duration of the infection. Cells were harvested at 22 hr. post infection, lysed and subjected to SDS PAGE followed by immunoblotting with a rabbit anti-HSV-1 antibody.

[5] = system: HSV-1; test: Immunofluorescence of HSV-1-infected A549 cells; assay type: cell-based; conditions: 100 μM FTI-1
[6] = system: HSV-1; test: HSV-1 viral protein synthesis in PKR+/+ and PKR-/- mouse embryo fibroblasts, Western blot; assay type: cell-based; conditions: MOI 0.5 PFU/cell, 20 hr post-infection
Method: The PKR^+/^+ and PKR^−/^− mouse embryo fibroblasts were obtained from Dr. B. R. G. Williams (the Cleveland Clinic Foundation) and were grown in α-MEM containing 10% FBS and antibiotics, as described.
as §2, with “After extensive washing, the blot was exposed to Lumigel detection solution (New England Biolabs) and subjected to autoradiography.” left out
The level of infection by R3616 in PKR^−/^− fibroblasts is equivalent to that seen in cells transformed by Ras, or elements of the Ras pathway. […] Cells were harvested at 20 hr post-infection and analyzed for viral proteins as above. […]

[7] = system: ATF-2 phosphorylation; test: ATF-2 phosphorylation in H-ras cells, Western blot; assay type: cell-based, murine; conditions: SB203580
Excerpt: as §1

Row | Structure (SMILES) | phosphorylation of ERK1/2 (ERK42/44) ([1]; FTI-1 50 μM or 100 μM) | PKR phosphorylation ([2]; FTI-1 100 μM) | virus yield (plaque titration on Vero cells) [3] | production of viral proteins ([4]; FTI-1 50 μM or 100 μM in culture medium, vs control without inhibitor) | HSV-1 infection / infectivity (summary statement) [4] | level of viral proteins detected by immunofluorescence [5] | HSV-1 infection (viral protein synthesis) ([6]; PKR+/+ cells) | HSV-1 infection (viral protein synthesis) ([6]; PKR-/- cells) | phosphorylation of ERK1/2 (Erk42/44) ([1]; PD98059 40 μM) | PKR phosphorylation ([2]; PD98059 40 μM) | production of viral proteins ([4]; 40 μM PD98059, vs control) | effect on HSV-1 infection (viral proteins, immunoblot) ([4]; SB203580 at effective doses, H-ras transformed cells) | phosphorylation of ATF-2 [7]
1 | CSCC[C@H](NC(=O)[C@H](Cc1ccccc1)NC[C@@H](NC[C@@H](N)CS)C(C)C)C(=O)O [FTI-1] | reduced phosphorylation of ERK1/2 | PKR phosphorylation is restored | dramatically decreased virus yield | drastically reduced | effectively block HSV-1 infection | dramatically reduces the level of viral proteins detected | inhibited HSV-1 infection | no effect | – | – | – | – | –
2 | COc1cccc(-c2cc(=O)c3ccccc3o2)c1N [PD98059] | – | – | dramatically decreased virus yield | – | partially blocked HSV-1 infection | – | – | – | lack of phosphorylation of ERK1/2 | PKR phosphorylation is restored | reduced | – | –
3 | C[S+]([O-])c1ccc(-c2nc(-c3ccncc3)c(-c3ccc(F)cc3)[nH]2)cc1 (centres unmarked) [SB203580] | – | – | does not effect virus yield | – | neither SB203580 [11] a specific inhibitor of p38 kinase, or Wortmannin [12] a specific inhibitor of P13-kinase, had any measurable effect | – | – | – | – | – | – | no effect on HSV-1 infection | lack of phosphorylation of ATF-2

Reference: patent publication US20010049113A1, “Diagnosis and treatment of herpes infections” (priority 2000, published 2001)
